# Experimental data as given in patent US20120208848A1 (NEUROSYSTEC CORPORATION, priority 2005, published 2012).
# How the values were obtained:
# Type in all cases: physicochemical
# [1] = Effect of pH and polysorbate 80 on gacyclidine stability in Ringer's solution at 55° C.
# Method: These samples were then incubated at 55° C. for 24 hours. […] The pH of each sample was determined at 55° C. by use of a pH meter standardized at 55° C. The pH meter, electrode and standards were the same as described in Example 3.
# [2] = Gacyclidine remaining in solution as a function of pH and excipients, 37° C., polypropylene vials
# Method: This same procedure was conducted at 37° C., and the samples were maintained in polypropylene vials (VWR # 20170-710, 2 mL vial).
# [3] = Elution of gacyclidine from a suspension of the free base form
# Method: The pH of these solutions was monitored by use of a pH meter, as described in Example 3. […] The average temperature of these solutions was 23° C. and varied between 21 and 25° C.
# [4] = Chemical stability of gacyclidine acid and base forms (decomposition to piperidine); conditions: for decomposition rate: 54° C.; for time required for 10% loss of gacyclidine due to decomposition / rate of decomposition: acid form
# Method: To monitor piperidine formation a Zorbax SB-CN column (25×0.46 cm, 5 μm; PN 880975, SN USS F01 3866) purchased from Agilent Technologies was maintained at 30° C. and eluted with a mixture composed of 50% Buffer A and 50% Buffer B at 150 μL/minute for 60 minutes. Buffer A was composed of water containing 0.1% trifluoroacetic acid and Buffer B was composed of acetonitrile containing 0.1% trifluoroacetic acid. The effluent from this column was interfaced with an AQA single quadrupole mass spectrometer (Thermo Electron) and a Surveyor PDA detector (UV monitor, Thermo Electron). The column effluent was monitored at 232 nm and scans were collected between 200 to 300 nm by use of the PDA detector. […] Piperidine was detected by the mass spectrometer at 16.0 minutes after injection onto the Zorbax SB-CN column (at m/z=86 only). Piperidine could not be detected by use of the PDA (UV monitor).
# Both sets of samples were then incubated for various lengths of time at either 54 or 56° C.
# At 5° C., the rate of decomposition was very slow and was difficult to measure, except by determining piperidine formation. The rate of decomposition at 5° C. was approximately 0.0001 day^−1, as determined by piperidine formation, or 0.000055 day^−1 as determined by extrapolation from the rates at higher temperature according to the Arrhenius relationship.
# [5] = 0.1% SOLUTOL HS15, 37° C., polypropylene vials
# [6] = 0.1% TWEEN 80, 37° C., polypropylene vials
# [7] = Ringer's Lactate 133 μM NaHCO3, 1.10 days
# [8] = Ringer's Lactate 133 μM NaHCO3, 1.54 days
# [9] = Ringer's Lactate 133 μM NaHCO3, 5.79 days
# [10] = Ringer's Lactate without pH adjustment, 1.10 days
# [11] = Ringer's Lactate without pH adjustment, 1.54 days
# [12] = Ringer's Lactate without pH adjustment, 5.79 days
smiles,measurement,setting,value
"CC1CCCCC1(c1cccs1)N1CCCCC1.Cl (stereo not drawn) [gacyclidine, 1-(2-methyl-1-thiophen-2-yl-cyclohexyl)-piperidine hydrochloride]",piperidine formed from 100 μM gacyclidine,"[1]; 0.3% polysorbate 80, Ringer's solution, 55° C., 24 hours, pH 6.7",4.5 µM
same,piperidine formed from 100 μM gacyclidine,"[1]; 0.3% polysorbate 80, Ringer's solution, 55° C., 24 hours, pH 8.2",0.92 µM
same,loss of gacyclidine due to precipitation,"[1]; 0.3% polysorbate 80, Ringer's solution, 55° C., 24 hours, various pH",no loss of gacyclidine due to precipitation
same,decomposition rate as % of the acid form rate at 55° C.,"[1]; 0.3% polysorbate 80, pH 6.7, 55° C.",6.4%
same,decomposition rate as % of the acid form rate at 55° C.,"[1]; 0.3% polysorbate 80, pH 8.2, 55° C.",1.3%
same,solubility of the basic form with excipient,"[2]; 0.1% CAPTISOL, 37° C., polypropylene containers",did not result in a clearly defined solubility
same,gacyclidine retained in solution at high pH,[2]; [5],~32 μM
same,"gacyclidine retained in solution at high pH, % of total gacyclidine added",[2]; [5],~3.2%
same,gacyclidine retained in solution at high pH,[2]; [6],about 20 μM
same,"gacyclidine retained in solution at high pH, % of total gacyclidine added",[2]; [6],~2.0%
same,solubility kinetic at 2 days,"[2]; buffered aqueous solution, aqueous buffer, pH 9.2, 37° C., polypropylene vials, presence or absence of 0.1% SOLUPHOR P",~1 µM
same,"gacyclidine remaining in solution, % of the total gacyclidine added","[2]; pH 9.2, 37° C., polypropylene vials, presence or absence of 0.1% SOLUPHOR P",~0.1%
same,gacyclidine,"[3]; 2.8 mg free base in 20.0 mL Ringer's Lactate 133 μM NaHCO3, 23° C., 0.625 days",20.7 µM
same,gacyclidine,"[3]; 2.8 mg free base in 20.0 mL Ringer's Lactate without pH adjustment, 23° C., 0.625 days",56.4 µM
same,pH of free base suspension,"[3]; Ringer's Lactate 133 μM NaHCO3, 0.625 days",7.54
same,gacyclidine,[3]; [7],37.1 µM
same,pH of free base suspension,[3]; [7],7.58
same,gacyclidine,[3]; [8],46.2 ± 0.3 µM
same,pH of free base suspension,[3]; [8],7.51
same,gacyclidine,[3]; [9],76.3 ± 0.3 µM
same,pH of free base suspension,[3]; [9],7.62
same,gacyclidine,"[3]; Ringer's Lactate 133 μM NaHCO3, 9.85 days",77.2 ± 0.5 µM
same,gacyclidine,"[3]; Ringer's Lactate 133 μM NaHCO3, 12.9 days",72.9 ± 1.1 µM
same,gacyclidine,"[3]; Ringer's Lactate 133 μM NaHCO3, 14.0 days",75.7 ± 2.0 µM
same,time to reach equilibrium concentration,[3]; Ringer's Lactate containing 0.13 mM sodium bicarbonate,≤ 10 days
same,equilibrium concentration as % of the total amount of gacyclidine base added,[3]; Ringer's Lactate with added sodium bicarbonate,~14%
same,equilibrium concentration as % of the total amount of gacyclidine base added,[3]; Ringer's Lactate without added sodium bicarbonate,about 30%
same,pH of free base suspension,"[3]; Ringer's Lactate without pH adjustment, 0.625 days",7.66
same,gacyclidine,[3]; [10],79.8 µM
same,pH of free base suspension,[3]; [10],7.44
same,gacyclidine,[3]; [11],88.3 ± 2.4 µM
same,pH of free base suspension,[3]; [11],7.46
same,gacyclidine,[3]; [12],124.4 ± 14.5 µM
same,pH of free base suspension,[3]; [12],7.38
same,gacyclidine,"[3]; Ringer's Lactate without pH adjustment, 9.85 days",152.4 ± 0.7 µM
same,gacyclidine,"[3]; Ringer's Lactate without pH adjustment, 12.9 days",162.2 ± 1.4 µM
same,gacyclidine,"[3]; Ringer's Lactate without pH adjustment, 14.0 days",157.9 ± 3.6 µM
same,time to reach equilibrium concentration,[3]; Ringer's Lactate without sodium bicarbonate,≤ 10 days
same,maximum concentration achieved at equilibrium,"[3]; solid gacyclidine base, starting pH near physiologic pH",about 75 μM
same,decomposition rate,[4]; 1.0 mM gacyclidine in 10 mM hydrochloric acid (acid form),0.52 day⁻¹
same,decomposition rate,[4]; 1.0 mM gacyclidine suspended in 1.5 mM sodium hydroxide (base form),0.0013 day⁻¹
same,time required for 10% loss of gacyclidine due to decomposition,[4]; 5° C.,3 years
same,rate of decomposition,"[4]; 5° C., determined by piperidine formation",approximately 0.0001 day^−1
same,rate of decomposition,"[4]; 5° C., extrapolation from rates at higher temperature (Arrhenius)",0.000055 day⁻¹
same,time required for 10% loss of gacyclidine due to decomposition,[4]; 23° C.,53 days
same,time required for 10% loss of gacyclidine due to decomposition,[4]; 37° C.,3.8 days
same,rate of decomposition,[4]; 55° C.,0.73 day⁻¹
same,time required for 10% loss of gacyclidine due to decomposition,[4]; 56° C.,0.138 days
